From US11680904B2, “Automated system for high-throughput all-optical dynamic electrophysiology” (The George Washington University, priority 2016, dated 2023)

Assays:
hiPS-CMs = experiment: Optical calcium recording in hiPS-CMs (OptoDyCE); assay type: cell-based, human; conditions: 1 μM, 10 min
Description: Frozen human iPSC-derived CMs (ICELL® Cardiomyocytes^2 CMC-100-012-001, CELLULAR DYNAMICS INTERNATIONAL™, Madison, Wis.) were thawed per the manufacturer's instructions. The cells were plated at the recommended plating density of 156,000 cells/cm^2 on fibronectin-coated 96-well glass-bottom plates. In some experiments, cells were grown in three-dimensional microgrooved scaffolds. These fibronectin-coated PDMS (SYLGARD® 184, DOW CORNING®, Midland, Mich.) scaffolds with microtopographical features (see FIG. 16, panel “e,” peak-to-peak 120 μm, depth of 50 μm) were produced by molding onto metal templates fabricated by acoustic micromachining (see Entcheva, E. et al. Lab Chip 5, 179-183, (2005); Chung, C. Y. et al. FASEB journal: official publication of the Federation of American Societies for Experimental Biology 25, 851-862, (2011); and Chung, C. Y., et al. J Cardiovasc Electrophysiol 18, 1323-1329, (2007)); and small circular microgrooved scaffolds were punched-out and placed in the 96-well plates. […]
Optical recording of membrane voltage, Vm, was performed using the synthetic voltage-sensitive dye Di-4-ANBDQBS, spectrally-compatible with ChR2. […] Intracellular calcium, [Ca^2+]i, was recorded using QUEST RHOD-4™, AM diluted from a 0.5 mM stock solution dissolved in DMSO with 20% PLURONIC® to 10 μM in Tyrode's solution. […]

[1] = system: ChR2-CMs (neonatal rat ventricular CMs); assay type: cell-based
Description: (§1) Primary CMs were used through the study for all illustrative experiments with pharmacological treatments, mainly because at the current stage, they are perceived as more mature than the hiPSC-CMs and their response to drugs has been better documented. Briefly, neonatal (2-3 day old) SPRAGUE-DAWLEY® rats were sacrificed and ventricular tissue was removed per an approved Stony Brook University IACUC protocol. The tissue was digested overnight at 4° C. using 1 mg/mL trypsin (US BIOCHEMICALS®, Cleveland, Ohio) in Hanks' Balanced Salt Solution (HBSS, GIBCO® INVITROGEN™, Carlsbad, Calif.). The next morning, the tissue was serially digested using 1 mg/mL collagenase (WORTHINGTON BIOCHEMICAL®, Lakewood, N.J.) in HBSS at 37° C. and pipetted into conical tubes and placed on ice. After centrifugation, cells were re-suspended in culture medium M199 (GIBCO®) supplemented with […] L-glutamine (GIBCO®), 0.05 μg/mL penicillin-streptomycin (MEDIATECH CELLGRO™, Kansas City, Mo.), 0.2 μg/mL vitamin B12 (SIGMA ALDRICH®, St. Louis, Mo.), 10 mM HEPES (GIBCO®), 3.5 mg/mL D-(+)-glucose (SIGMA ALDRICH®), and 10% fetal bovine serum, FBS (GIBCO®). Fibroblasts were removed via a two-step pre-plating process, where the cell suspension was plated in a flask and incubated (37° C., 5% CO2) for 45-60 minutes and switched to a new flask and the incubation repeated. CMs were then counted using a hemocytometer prior to plating in glass-bottom 96-well plates (see Jia, Z. et al. Circulation. Arrhythmia and electrophysiology 4, 753-760, (2011) and Chung, C. Y., et al. J Cardiovasc Electrophysiol […], 1323-1329, (2007)).
Adenoviral delivery of ChR2(H134R) to primary CMs was performed in suspension (see Ambrosi, C. M. et al. Methods Mol Biol 1181, 215-228, (2014)). Briefly, the plasmid pcDNA3.1/hChR2(H134R)-EYFP was used (ADDGENE™, Cambridge, Mass.; deposited by Dr. K. Deisseroth) (see Zhang, F. et al. Nature 446, 633-639, (2007)), to develop an adenoviral construct (pBR322 backbone) with a ubiquitous CMV promoter. First-generation adenovirus was generated by homologous recombination of the Ad-CMV-ChR2-eYFP into pTG3604; further propagation and purification of the virus genomes was done by transfection into HEK293 cells and CsC1 banding. CMs were re-suspended in 2% FBS M199 after counting and diluted to 1.125×10^6 cells/mL and infected using an optimized MOI of 15 for two hours in an incubator (37° C., 5% CO2) with gentle agitation every 20 minutes. The MOI had been optimized during preliminary experiments to achieve >95% ChR2 expression in CMs within 48 hours using titer of 10^12 units/mL diluted in PBS, confirmed by eYFP reporter visualization and minimal cell death (by propidium iodide staining) (see Ambrosi, C. M., et al. Prog Biophys Mol Biol 115, 294-304, (2014) and Ambrosi, C. M. et al. Methods Mol Biol 1181, 215-228, (2014)). After two hours, the cell suspension was centrifuged and culture medium was removed and replaced with fresh 10% FBS M199 for plating (see Ambrosi, C. M. et al. Methods Mol Biol 1181, 215-228, (2014)).
Non-infected control CMs and ChR2-CM cells (for OptoHTS) were plated using a concentration of 1.125×10^6 cells/mL to achieve a plating density of 470,000 cells/cm^2. For CM/ChR2-HEK co-cultures, CMs at a concentration of 1.125×10^6 cells/mL were mixed in a conical with trypsinized ChR2-HEK cells, pre-diluted to achieve ratios 150:1 CM to ChR2-HEK. After centrifugation, the media was removed and the cells were re-suspended in fresh 10% FBS M199 to achieve the same density of plating as the control CMs.
All functional experiments were carried out 4-5 days after cell plating, at room temperature in Tyrode's solution containing the following (in mM): NaCl, 135; MgCl2, 1; KCl, 5.4; CaCl2, 1.5; NaH2PO4, 0.33; glucose, 5; and HEPES, 5 adjusted to pH 7.4 with NaOH (see Chung, C. Y., et al. J Cardiovasc Electrophysiol 18, 1323-1329, (2007)). […]

"spark"-ChR2-CMs = experiment: sOptoHTS: all-optical electrophysiology of CMs sprinkled with "spark" ChR2-HEK cells; assay type: cell-based, rat
Description: as §1
The cell delivery approach employs “spark” cells (ChR2(H134R)-HEK293), a stable cell line showing near 100% expression of ChR2. “Spark” cells were developed by transfecting HEK293 cells (CRL-1573™ ATCC®, Manassas, Va.) with the ChR2 plasmid pcDNA3.1/hChR2(H134R)-EYFP using LIPOFECTAMINE® 2000 (INVITROGEN™, Carlsbad, Calif.). […]

## CC(C)NCC(O)c1ccc(O)c(O)c1 (stereo not shown) [isoproterenol]
hiPS-CMs; quiescent hiPS-CMs
  calcium-mediated pacing activity in quiescent cells: calcium-mediated pacing activity was induced
hiPS-CMs; spontaneously beating hiPS-CMs
  rate of pacing in spontaneously beating cells: rate of pacing was accelerated

## COC(=O)C1=C(C)NC(C)=C(C(=O)OC)C1c1ccccc1[N+](=O)[O-] [nifedipine, Nifedipine]
[1]; optical pacing 1 Hz
  concentration of maximum APD shortening: around 1 μM
  concentration up to which CTD monotonically decreases: up to 10 μM

## C[S+](C)[O-] [DMSO]
[1]
  effect on APD / electrophysiological measurements: not seen to affect the electrophysiological (EP) measurements

## CN(CCOc1ccc(NS(C)(=O)=O)cc1)CCc1ccc(NS(C)(=O)=O)cc1 [dofetilide, Dofetilide]
[1]; 0.02 μM, paced at 1 Hz, 0.539 mW/mm^2 10 ms light pulses
  calcium instability / spatial heterogeneity: localized spontaneous calcium release (SCR)
[1]; 2 μM, 1 Hz pacing, versus control, p<0.05 for APD50
  spatial variability in APD (dispersion of repolarization): increases spatial variability in APD
[1]; 2 μM, 2 Hz optical pacing
  effect on APD: APD prolongation
  voltage instabilities: alternans
[1]; at higher frequency, opposite to reverse-use dependence
  relative APD50 change versus pacing frequency: enhanced relative APD50 prolongation
"spark"-ChR2-CMs; 0.2 μM, paced at 1 Hz
  drug-induced AP variation, lower dose: sporadic EADs
"spark"-ChR2-CMs; 2 μM, paced 2 Hz
  drug-induced AP variation, higher dose: large temporal variability in AP morphology
"spark"-ChR2-CMs; optically paced samples, FIGS. 10A-10C
  early afterdepolarizations (EADs) versus dose: dose-dependent increase in EADs
